Experiments:
Assay type in all cases: physicochemical
[1] = reconstitution / dissolution of the formulation in aqueous solvents; details: 0.9% w/v saline, saline or isotonic, thermodynamic from solid; read-out: solubility (concentration dissolved)
Experimental: One sample was reconstituted with 2 mL of water. Dissolution was complete within 1-2 minutes of shaking. The entire solution was transferred to a volumetric flask, diluted, and analyzed by HPLC for content of N-(2-pyrazine)carbonyl-L-phenylalanine-L-leucine boronic acid. The total drug content was 1.09 mg. A second sample was reconstituted with 1 mL of propylene glycol:EtOH:H2O, 40:10:50. Dissolution was complete with 1 minute of shaking. The total drug content was 1.11 mg.
The lyophilized formulation was also reconstituted with 0.9% w/v saline. The lyophilized material dissolved readily at concentrations up to 6 mg/mL.
(§1) The lyophilized product was prepared according to Example 1, and samples (2.5 mg/vial) were reconstituted with 2.5 mL of 0.9% w/v sterile saline. […] No special care was taken to protect the solution from light.

[2] = storage stability determined by HPLC analysis
Experimental: The product was obtained as a white amorphous powder. The product was stable for more than 2 years when stored at −20° C., as determined by HPLC analysis (purity >97%). When stored at 2-8° C., the product was not stable for longer than 3-6 months.
When stored at 2-8° C., the liquid formulation was not stable for longer than 6 months, as determined by HPLC analysis.
The lyophilized product was prepared according to Example 1 and stored at 5° C., ambient temperature, 37° C., and 50° C. Stability was monitored for approximately 18 months by periodically reconstituting a sample and analyzing the entire contents of the bottle by HPLC.
as §1

[3] = dynamic vapor sorption studies; details: crystalline product

| Compound | solubility [1] [µg/mL] | time stable on storage ([2]; stored at 2-8° C., HPLC analysis) | time stable on storage ([2]; stored at −20° C., HPLC analysis (purity >97%)) | hygroscopicity [3] |
| --- | --- | --- | --- | --- |
| CC(C)C[C@H](NC(=O)[C@H](Cc1ccccc1)NC(=O)c1cnccn1)B(O)O [N-(2-pyrazine)carbonyl-L-phenylalanine-L-leucine boronic acid] | < 1000 | 3-6 months | more than 2 years |  |
| CC(C)C[C@H](NC(=O)[C@H](Cc1ccccc1)NC(=O)c1cnccn1)B1OB([C@H](CC(C)C)NC(=O)[C@H](Cc2ccccc2)NC(=O)c2cnccn2)OB([C@H](CC(C)C)NC(=O)[C@H](Cc2ccccc2)NC(=O)c2cnccn2)O1 [N-(2-pyrazine)carbonyl-L-phenylalanine-L-leucine boroxine] |  |  |  | non-hygroscopic |

From patent US7109323B2, “Formulation of boronic acid compounds” (The United States of America as represented by the …, priority 2001, dated 2006)
